In brackets after ≈: the same amount, converted by molar mass.
How the values were obtained:
[1] = system: carrageenan induced paw oedema; assay: In vivo anti-inflammatory potential, carrageenan induced paw oedema model; parameters: species or system Swiss albino mice; conditions: reference drug at dose 50 mg/kg body weight
Experimental: The animals for experimental model were taken from small breeding station of Amala Cancer Research Centre, Thrissur (Registration No. 149/99/CPCSEA) and […] Institute of Medical Science, Kochi (Registration No. 527/02/a/CPCSEA). The animals were kept in air-conditioned room at 22±2° C. and relative humidity […] with 12 hours day and light cycle, fed with normal mouse chow, a natural ingredient diet (Sai Feeds, India) and water ad libitum. All animal experiments were performed according to the rules and regulations of the Committee for the Purpose of Control and Supervision of Experiments on Animals (CPCSEA), Government of India. Five groups each contained six Male Swiss albino mice (25-30 g) in each group were injected with 25 μL of 1% suspension of carrageenan in 0.1% carboxy methylcellulose (CMC) sub-planetary into right hind paw. Paw volume was measured at various time intervals such as, paw volume before inflammation induction, then for 1, 2, 3, 4, 5 and 24 hours after carrageenan administration using a vernier calliper. Clove extract at doses 25, 50 and 100 mg/kg body weight was administered (orally) 1 hour prior to carrageenan injection. […] The percentages of inhibition were calculated according to the following formula. […] Where, VT-Paw oedema at various time intervals and Vo-Initial paw oedema [table]

[2] = ABTS assay; type: biochemical
Experimental: Keep ABTS solution at Room temperature for 16 hours, and then store it at 4° C. (if not use). Take 500 μL, ABTS solution and add 50 mL PBS; adjust the OD to 0.7-0.8 against PBS as reference at 734 nm. Take 1 mL ABTS solution with different varies concentration of the extracts (1 mg/mL spice extract stock solution was prepared in distilled water) and made up to 2 mL with PBS. Keep the sample at room temperature for 6 minutes. The absorbance was measured at 734 nm. The results were calculated from the slopes of reaction curves obtained by plotting the absorbance Vs time. […] Mix well and this was given to five volunteer for sensory evaluation. The sample was first de-oiled and its antioxidant level was check using DPPH, ABTS, & SOD method comparing with plain potato chips.

[3] = Superoxide radical anion scavenging activity; type: biochemical
Experimental: McCord and Fridovich, (1969), measure super oxide radical anion scavenging activity. Briefly, 1 mg/mL spice extract stock solution was prepared in distilled water. The reaction mixture contained 200 μL KCN [dissolved in EDTA (6 mM)], 50 μL riboflavin (0.12 mM), 100 μL NBT (1.5 mM) and various concentrations (1-10 μg/mL) of the extract and add Phosphate buffer made up to 3 mL. The tubes containing the reaction mixture were uniformly illuminated with an incandescent lamp for 15 minutes. The absorbance was measured at 530 nm before and after the illumination. Percent inhibition of superoxide radical was calculated using the equation: […] Mix well and this was given to five volunteer for sensory evaluation. The sample was first de-oiled and its antioxidant level was check using DPPH, ABTS, & SOD method comparing with plain potato chips.

[4] = system: rat liver homogenate; assay: Lipid peroxidation assay; type: biochemical
Experimental: The level of lipid peroxidation was measured by the method of Ohkawa et al (1979). Briefly, 1 mg/mL spice extract stock solution was prepared in distilled water. Various concentrations (1-10 μg/mL) of extract were incubated with 0.1 mL rat liver homogenate (25%) containing 30 mM KCl, Tris-HCl buffer (0.04 M, pH 7.0), ascorbic acid (0.06 mM) and ferrous ion (0.16 mM) in a total volume 0.5 mL for 1 hr. After incubation, 0.4 mL of reaction mixture was treated with 0.2 mL SDS (8.1%), 1.5 mL TBA (0.8%) and 1.5 mL acetic acid (20%, pH 3.5) distilled water were kept for 1 hr in a boiling water bath at 100° C. […] Absorbance of the clear supernatant was measured at 532 nm against pyridine:butanol. Percent inhibition of lipid peroxidation was calculated using the equation: […]

[5] = DPPH assay; type: biochemical
Experimental: Briefly, various concentrations of the extract were added to 1 mL of freshly prepared DPPH solution in methanol. The reaction mixture was made up to 2 mL with methanol; incubated for 20 minutes; read at 515 nm against methanol as reference. The percentage inhibition was calculated and concentration needed for 50% inhibition was found out. […] Mix well and this was given to five volunteer for sensory evaluation. The sample was first de-oiled and its antioxidant level was check using DPPH, ABTS, & SOD method comparing with plain potato chips.

[6] = Hydroxyl radical scavenging activity; type: biochemical
Experimental: Hydroxyl radical scavenging activity of the extract was measured by following the method of Elizabeth and Rao, (1990). Briefly, 1 mg/mL spice extract stock solution was prepared in distilled water and mixed with the reaction mixture containing deoxyribose (2.8 mM), ferric chloride (0.1 mM) EDTA (0.1 mM), H2O2 (1 mM), ascorbate (0.1 mM), and KH2PO4—KOH (20 mM, pH 7.4) at various concentrations (1-10 μg/mL) to a total volume of 1 mL and incubated for 1 hr at 37° C. Absorbance of each solution was measured at 530 nm using a UV/VIS spectrophotometer against the distilled water as reference. From the absorbance of the control and test solution, percentage inhibition was calculated.

IC50, ABTS [2]	IC50, superoxide radical anion scavenging [3]	IC50, lipid peroxidation [4]	IC50, DPPH [5]	IC50, hydroxyl radical scavenging [6]	SMILES	inhibition of paw oedema [1]
–	–	–	–	–	O=C(O)Cc1ccccc1Nc1c(Cl)cccc1Cl [diclofenac, Diclofenac]	56.70%
2.25 µg/mL (≈ 12.8 µM)	1900 µg/mL (≈ 10800 µM)	375 µg/mL (≈ 2130 µM)	14 µg/mL (≈ 79.5 µM)	1550 µg/mL (≈ 8800 µM)	O=C1O[C@H]([C@@H](O)CO)C(O)=C1O [Vitamin C]	–
